The experiment addresses T1, purified human P-selectin (Homo sapiens, UniProt P16109).
T1 construct: P-selectin is isolated from human platelet lysates; from tissue; host or cells: outdated human platelet packs (platelet lysates)
T1 sequence (P16109 42-830): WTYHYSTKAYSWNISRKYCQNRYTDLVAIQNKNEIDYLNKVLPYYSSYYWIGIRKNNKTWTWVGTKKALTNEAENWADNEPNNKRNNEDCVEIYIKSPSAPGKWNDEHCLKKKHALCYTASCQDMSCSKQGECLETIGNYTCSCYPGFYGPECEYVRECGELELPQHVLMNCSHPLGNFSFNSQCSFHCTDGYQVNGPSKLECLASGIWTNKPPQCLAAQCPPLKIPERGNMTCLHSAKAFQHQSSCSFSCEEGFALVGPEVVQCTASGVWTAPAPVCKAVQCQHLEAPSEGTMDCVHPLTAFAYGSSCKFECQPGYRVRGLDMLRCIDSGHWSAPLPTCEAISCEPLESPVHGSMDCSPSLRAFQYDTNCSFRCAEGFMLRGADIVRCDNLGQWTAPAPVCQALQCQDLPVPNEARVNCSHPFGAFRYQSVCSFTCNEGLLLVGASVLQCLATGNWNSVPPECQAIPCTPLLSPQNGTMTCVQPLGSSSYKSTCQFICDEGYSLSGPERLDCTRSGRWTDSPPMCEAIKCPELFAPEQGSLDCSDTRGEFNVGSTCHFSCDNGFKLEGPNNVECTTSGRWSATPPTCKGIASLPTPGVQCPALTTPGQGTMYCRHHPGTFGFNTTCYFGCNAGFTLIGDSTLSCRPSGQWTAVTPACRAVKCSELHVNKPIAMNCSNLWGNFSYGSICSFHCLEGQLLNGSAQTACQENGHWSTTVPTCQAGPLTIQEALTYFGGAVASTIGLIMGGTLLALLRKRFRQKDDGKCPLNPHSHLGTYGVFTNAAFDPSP
Description: Neutrophil adhesion to purified P-selectin immobilized on plastic wells. The note with it: result in words. The format is cell-based. An excerpt: Peptides can be screened for their ability to inhibit adhesion to cells, for example, neutrophil adhesion to purified P-selectin immobilized on plastic wells, using the assay described by Geng, et al., Nature 343, 757-760 (1990).
Human neutrophils are isolated from heparinized whole blood by density gradient centrifugation on Mono-Poly resolving media, Flow Laboratories. Neutrophil suspensions are greater than 98% pure and greater than 95% viable by trypan blue exclusion. For adhesion assays, neutrophils are suspended at a concentration of 2×10^6 cells/mL in Hanks' balanced salt solution containing 1.26 mM Ca^2+ and 0.81 mM Mg^2+ (HBSS, Gibco) with […] human serum albumin (HBSS/HSA). Adhesion assays are conducted in triplicate in 96-well microtiter plates, Corning, incubated at 4° C. overnight with 50 microliters of various protein solutions.
P-selectin is isolated from human platelet lysates by immunoaffinity chromatography on antibody S12-Sepharose™ and ion-exchange chromatography on a Mono-Q™ column (FLPC, Pharmacia Fine Chemicals), as follows. […]
Bound P-selectin is eluted from the S12 Affigel with 100 mL of 80% ethylene glycol, 1 mM MES pH 6.0, 0.01% Lubrol PX. Peak fractions with absorbance at 280 nm are pooled. […]

Where no end group is shown, it is not given here. The star is where a group is joined. Nif = α,α,α-trifluoro-m-toluidino-nicotinyl, O=C(c1cccnc1Nc1cccc(C(F)(F)F)c1)*

As for “YTDLVAI-NH2 [SEQ ID NO: 4, Tyr-Thr-Asp-Leu-Val-Ala-Ile-NH2]”, the “inhibit the adhesion of human neutrophils to purified human P-selectin (FIG. I)” value was “inhibit the adhesion”.

Consider “SEQ ID NO: 10: peptide of Formula I shown in FIG. I; its sequence is not printed in the text (Nif-TDLVAIQ-NH2)”, for which the “inhibit the adhesion of human neutrophils to purified human P-selectin (FIG. I)” value is recorded as “inhibit the adhesion”.

The record behind these values is patent US5602230A, “Peptide inhibitors of selectin binding” (Centocor, Inc., priority 1995, dated 1997).
